The values that follow come from patent publication US20130096123A1, “RADIATION SENSITISER COMPOSITIONS” (EUPHARMA PTY LTD, priority 2010, published 2013).

≈ marks a conversion by molar mass, not a printed value.

One data set is described as follows: physchem. The data set is classed as physicochemical. The protocol:
A large number of these exist but in this formulation Hydroxypropyl beta Cyclodextrin (HPbCD) is used. HPbCD also assists masking the taste of the drug.
A solubility increase of above 10 fold is achieved and the room temperature solubility of nimorazole may be increased to the more dose convenient level of 100 mg/ml.
HPbCD complexes with nimorazole over a wide molar ratio, in this example the lower ratio of […] is used, therefore 226 g of nimorazole is used with 1400 g of HPbCD.

For data set [1] the following is noted: cited from earlier work.

For orientation: solubility means the dissolved amount per volume that the medium holds. A high value points to a readily soluble substance. One may read the pKa as the pH at which an ionisable group is half protonated. As for `O=[N+]([O-])c1cncn1CCN1CCOCC1` [Nimorazole, nimorazole], the solubility increase result in the data set “physchem” is given as “above 10 fold”. The same compound yielded a solubility in “physchem” (aqueous with cosolvent or surfactant or cyclodextrin) of 100 mg/mL (≈ 442 mM). In data set [1], the pKa is reported as 5.2.
